pKd: −log10 of the molar value.
Experiments:
[1] = biological target: T1, recombinant N-terminal Ig-like V domain of nectin-4 (Homo sapiens, UniProt Q96NY8); experiment: FA direct binding of probe 1a to Ig-like V domain
T1 construct: probe 1a to the N-terminal Ig-like V domain of nectin-4 (Acro Biosystems, NE4-H82Ea); purchased Acro Biosystems NE4-H82Ea
T1 sequence (Q96NY8 32-144 limits assumed): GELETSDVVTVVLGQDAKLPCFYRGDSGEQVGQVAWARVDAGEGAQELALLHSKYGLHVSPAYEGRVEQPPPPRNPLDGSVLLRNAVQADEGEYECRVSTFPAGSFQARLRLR
Description: For direct binding of probe 1a to the N-terminal Ig-like V domain of nectin-4 (Acro Biosystems, NE4-H82Ea), the same procedure as described previously was applied.

[2] = biological target: T2, recombinant human nectin-4 (Homo sapiens, UniProt Q96NY8); experiment: Fluorescence anisotropy (FA) direct binding of fluorescent probes; settings: 1 nM probe
T2 construct: close to the value determined for the complete extracellular domain of nectin-4 (0.94 nM); purchased R&D Systems 2659-N4
T2 sequence (Q96NY8 32-349 limits assumed): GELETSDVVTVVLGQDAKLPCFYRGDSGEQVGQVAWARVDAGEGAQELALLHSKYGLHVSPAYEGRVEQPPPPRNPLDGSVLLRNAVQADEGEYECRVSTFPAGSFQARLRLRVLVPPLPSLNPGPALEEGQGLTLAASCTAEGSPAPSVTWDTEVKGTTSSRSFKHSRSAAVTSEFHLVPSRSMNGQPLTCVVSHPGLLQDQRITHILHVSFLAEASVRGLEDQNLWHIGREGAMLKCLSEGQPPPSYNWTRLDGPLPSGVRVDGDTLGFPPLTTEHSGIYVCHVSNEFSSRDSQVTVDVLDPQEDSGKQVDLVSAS
Description: For characterizing the binding affinity of the bicyclic peptides toward nectin-4, we envisaged a fluorescence anisotropy-based competitive binding assay. Mudd et al. also used such an assay for the development of the bicycle drug conjugate BT8009. Herein, the peptidic scaffold of BT8009 was used as a basis for the required fluorescent nectin-4-ligand (probe) with either 6-TAMRA (1a) or 6-FAM (1b) being attached at the N-terminal Cys residue. […] In this context, the binding of the probe to nectin-4 was started by the addition of nectin-4, followed by continuous fluorescence measurements over 20 min. It is worth noting that a slight initial increase in the FA values could be observed for both probes (FA values at <300 s in Figure S1); however, this putative time-dependent association appeared to be too fast to analyze it. […]
All measurements were conducted at 37 °C over 1200 s (interval of 37 s) using a Cytation 5 multimode microplate reader (BioTek Instruments, Software Gen 5) and black 96-well microplates (BRANDplates with F-bottom wells). […] The FA (r) was calculated by Gen 5 software from the measured parallel and perpendicular fluorescence intensities (I ∥ and I ⊥, respectively) according to eq using a G factor of 0.87 (preset value). r=I∥−G×I⊥/I∥+2G×I⊥ 1 […]

[3] = tested on: HT-1376 cells; experiment: Flow cytometry with fluorescent probe; assay type: cell-based, human; settings: 1 µM probe, on ice 1 h; 5637 cells as negative
Method: For flow cytometry analysis, HT-1376 and 5637 cells were rinsed with PBS three times and dissociated from a flask by using 50 mM EDTA and a cell scraper. Aliquots of the cell suspension containing 1 × 10^6 cells were pelleted at 300×g for 7 min, and one pellet of each cell line was dissolved in fresh PBS + 3% BSA containing 1 μM of probe 1b. As a negative control, one HT-1376 pellet was dissolved only in PBS + 3% BSA. The cells were incubated on ice for 1 h before they were pelleted again. The staining solution was discarded, and the pellet was washed in 1 mL of PBS + 0.5% BSA + 2 mM EDTA (FACS wash buffer) and centrifuged again. The washing step was repeated a total of three times. After the last wash, the pellets were dissolved in 500 μL of FACS wash buffer and analyzed with an Attune NxT Flow Cytometer (Invitrogen). For the detection, the BL1 laser with an excitation of 488 nm and an emission filter of 530/30 nm set to a Voltage of 270 was used. The forward scatter was set to a voltage of 80 or 120, and the sideward scatter was set to 320 or 370 for HT-1376 or 5637 cells, respectively. A sample of 50 μL was analyzed at a speed of 100 μL/min, leading to a total of 35410 and 34992 analyzed events (singlets) for HT-1376 and 5637 cells, respectively.

| Structure (SMILES) | pKd [1] | dynamic range (ΔFA = mA of bound probe – mA of free probe) [2] | binding of probe to cells (FACS) [3] |
| --- | --- | --- | --- |
| CSCC[C@@H]1NC(=O)[C@@H]2CSCCC(=O)N3CN(CN(C3)C(=O)CCSC[C@H](NC(=O)c3ccc(C(=O)O)c(-c4c5ccc(=[N+](C)C)cc-5oc5cc(N(C)C)ccc45)c3)C(=O)N3CCC[C@H]3C(=O)N[C@@H](Cc3cccc4ccccc34)C(=O)N[C@H](CC(=O)O)C(=O)N2)C(=O)CCSC[C@@H](C(N)=O)NC(=O)[C@H](Cc2c[nH]c3ccccc23)NC(=O)[C@@H]2C[C@@H](O)CN2C(=O)[C@@H]2CCCN2C(=O)[C@H]([C@@H](C)O)NC(=O)[C@H](CO)NC(=O)[C@H](Cc2c[nH]c3ccccc23)NC(=O)[C@H](CC(=O)O)NC(=O)[C@H](CCCCNC(=N)N)NC1=O [1a] | 8.89 | 100 (±3) mA |  |
| CSCC[C@@H]1NC(=O)[C@@H]2CSCCC(=O)N3CN(CN(C3)C(=O)CCSC[C@H](NC(=O)c3ccc(C(=O)O)c(-c4c5ccc(=O)cc-5oc5cc(O)ccc45)c3)C(=O)N3CCC[C@H]3C(=O)N[C@@H](Cc3cccc4ccccc34)C(=O)N[C@H](CC(=O)O)C(=O)N2)C(=O)CCSC[C@@H](C(N)=O)NC(=O)[C@H](Cc2c[nH]c3ccccc23)NC(=O)[C@@H]2C[C@@H](O)CN2C(=O)[C@@H]2CCCN2C(=O)[C@H]([C@@H](C)O)NC(=O)[C@H](CO)NC(=O)[C@H](Cc2c[nH]c3ccccc23)NC(=O)[C@H](CC(=O)O)NC(=O)[C@H](CCCCNC(=N)N)NC1=O [1b] |  | 86 (±7) mA | Nectin-4-specific binding |

— publication PMC12557367, ““Precision on Two Wheels”–Structural Refinement of ^64Cu- and ^68Ga-Labeled Bicyclic Peptides Targeting Nectin‑4 for Improved Tumor Imaging: From Preclinical Development to First-in-Human Application” (Journal of Medicinal Chemistry, 2025)
